One block for each molecule: values may come before it. *1 amine or outer side, *2 acyl side, *3 side chain or, on linkers, in order; H or OH if unused. Where a SMILES comes first, the peptide text is derived from it. [ ]: non-standard residue; d: D form. X2 = [N-]=[N+]=CC(=O)CC[C@@H](N[*:1])C(=O)[*:2]; DON = [N-]=[N+]=CC(=O)CC[C@H](N)C(=O)O
Tests used:
[1] = molecular target: T1, human TG2 (Homo sapiens, UniProt P21980); test: TG2 inhibition kinetics by the method of Hausch et al.; assay type: biochemical; set-up: ki/KI: unit not given here
T1 sequence (P21980 1-687): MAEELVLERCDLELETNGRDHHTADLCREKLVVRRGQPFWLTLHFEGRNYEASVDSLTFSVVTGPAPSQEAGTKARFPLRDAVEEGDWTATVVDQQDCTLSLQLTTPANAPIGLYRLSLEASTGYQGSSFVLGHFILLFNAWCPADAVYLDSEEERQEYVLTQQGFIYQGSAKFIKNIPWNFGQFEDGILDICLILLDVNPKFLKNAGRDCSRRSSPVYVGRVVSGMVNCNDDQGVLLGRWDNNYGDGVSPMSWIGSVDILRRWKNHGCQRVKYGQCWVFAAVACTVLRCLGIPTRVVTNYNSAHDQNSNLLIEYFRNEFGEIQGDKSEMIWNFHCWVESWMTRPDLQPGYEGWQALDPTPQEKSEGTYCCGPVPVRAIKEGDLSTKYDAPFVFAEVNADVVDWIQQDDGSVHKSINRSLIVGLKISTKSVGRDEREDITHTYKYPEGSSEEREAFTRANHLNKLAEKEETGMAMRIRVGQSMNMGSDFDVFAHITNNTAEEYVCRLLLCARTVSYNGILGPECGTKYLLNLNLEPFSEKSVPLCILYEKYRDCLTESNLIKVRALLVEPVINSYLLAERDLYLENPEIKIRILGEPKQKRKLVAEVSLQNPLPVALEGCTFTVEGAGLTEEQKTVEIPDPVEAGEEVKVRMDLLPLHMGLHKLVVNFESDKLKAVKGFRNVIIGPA
Source text: Earlier disclosures had reported the synthesis and evaluation of a promising peptidic inhibitor of human TG2, (SEQ ID NO:1) Ac-Pro-Gln-Pro-DON-Leu-Pro-Phe-NH2. We now disclose a truncated analog that is easier to synthesize and has greater activity.
Characterization: (SEQ ID NO:3) Ac-Pro-DON-Leu-Pro-Phe-NH2 was characterized by the method of Hausch et al. (Hausch et al., Chem. Biol. (2003) 10, 225-231).

[2] = molecular target: T2, recombinant human tissue transglutaminase (Homo sapiens, UniProt P21980); test: tTGase inhibition assay, residual activity by glutamate dehydrogenase coupled assay; assay type: biochemical; conditions: dihydroisoxazoles, Table 1
T2 construct: made in house
T2 sequence (P21980 1-687): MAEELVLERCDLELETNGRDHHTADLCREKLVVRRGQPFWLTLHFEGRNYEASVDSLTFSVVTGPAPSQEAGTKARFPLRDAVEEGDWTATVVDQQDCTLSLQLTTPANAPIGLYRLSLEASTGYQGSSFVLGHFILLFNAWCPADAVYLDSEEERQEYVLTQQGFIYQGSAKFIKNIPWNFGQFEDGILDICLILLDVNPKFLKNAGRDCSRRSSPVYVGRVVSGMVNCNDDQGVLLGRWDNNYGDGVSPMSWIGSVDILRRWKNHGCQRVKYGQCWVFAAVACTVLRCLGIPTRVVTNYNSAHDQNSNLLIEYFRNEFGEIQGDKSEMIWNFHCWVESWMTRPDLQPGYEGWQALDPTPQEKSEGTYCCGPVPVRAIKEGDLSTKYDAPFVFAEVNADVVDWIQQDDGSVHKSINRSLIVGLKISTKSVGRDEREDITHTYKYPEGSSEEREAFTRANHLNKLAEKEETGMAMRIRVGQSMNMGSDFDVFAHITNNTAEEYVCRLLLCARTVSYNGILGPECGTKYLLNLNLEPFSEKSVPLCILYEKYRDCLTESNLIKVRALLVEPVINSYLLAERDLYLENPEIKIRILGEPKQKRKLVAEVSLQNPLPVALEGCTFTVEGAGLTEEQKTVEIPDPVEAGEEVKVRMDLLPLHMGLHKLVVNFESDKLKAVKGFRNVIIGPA

[3] = molecular target: T3, bovine epidermal transglutaminase (Bos taurus, UniProt A6QP57); conditions: cited from earlier work
T3 sequence (A6QP57 1-691): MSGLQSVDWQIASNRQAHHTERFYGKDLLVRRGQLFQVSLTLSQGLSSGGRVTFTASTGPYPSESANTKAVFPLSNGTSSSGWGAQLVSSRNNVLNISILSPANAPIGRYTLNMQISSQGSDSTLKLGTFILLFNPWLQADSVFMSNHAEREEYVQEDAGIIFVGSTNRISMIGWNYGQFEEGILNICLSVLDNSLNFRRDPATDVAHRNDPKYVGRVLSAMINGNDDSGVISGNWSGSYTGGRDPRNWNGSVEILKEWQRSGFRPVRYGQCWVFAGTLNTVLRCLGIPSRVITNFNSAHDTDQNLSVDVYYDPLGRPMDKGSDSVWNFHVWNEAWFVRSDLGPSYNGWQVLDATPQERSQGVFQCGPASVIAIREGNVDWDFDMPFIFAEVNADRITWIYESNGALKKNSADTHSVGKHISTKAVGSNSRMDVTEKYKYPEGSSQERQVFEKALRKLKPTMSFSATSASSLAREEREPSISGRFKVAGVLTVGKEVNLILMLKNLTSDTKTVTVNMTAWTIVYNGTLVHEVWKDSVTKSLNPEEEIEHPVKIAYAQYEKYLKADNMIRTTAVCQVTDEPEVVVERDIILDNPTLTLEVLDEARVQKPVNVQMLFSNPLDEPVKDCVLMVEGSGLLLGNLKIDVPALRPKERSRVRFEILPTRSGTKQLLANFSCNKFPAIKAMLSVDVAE

[4] = molecular target: T1, human TG2; conditions: cited from earlier work
[5] = molecular target: T4, human TG2 (tissue transglutaminase, transglutaminase 2) (human, UniProt P21980 1-687, limits assumed); test: TG2 enzyme inactivation kinetics by the method of Hausch et al.
T4 construct: also called tTGase; tTG
T4 sequence (looked up): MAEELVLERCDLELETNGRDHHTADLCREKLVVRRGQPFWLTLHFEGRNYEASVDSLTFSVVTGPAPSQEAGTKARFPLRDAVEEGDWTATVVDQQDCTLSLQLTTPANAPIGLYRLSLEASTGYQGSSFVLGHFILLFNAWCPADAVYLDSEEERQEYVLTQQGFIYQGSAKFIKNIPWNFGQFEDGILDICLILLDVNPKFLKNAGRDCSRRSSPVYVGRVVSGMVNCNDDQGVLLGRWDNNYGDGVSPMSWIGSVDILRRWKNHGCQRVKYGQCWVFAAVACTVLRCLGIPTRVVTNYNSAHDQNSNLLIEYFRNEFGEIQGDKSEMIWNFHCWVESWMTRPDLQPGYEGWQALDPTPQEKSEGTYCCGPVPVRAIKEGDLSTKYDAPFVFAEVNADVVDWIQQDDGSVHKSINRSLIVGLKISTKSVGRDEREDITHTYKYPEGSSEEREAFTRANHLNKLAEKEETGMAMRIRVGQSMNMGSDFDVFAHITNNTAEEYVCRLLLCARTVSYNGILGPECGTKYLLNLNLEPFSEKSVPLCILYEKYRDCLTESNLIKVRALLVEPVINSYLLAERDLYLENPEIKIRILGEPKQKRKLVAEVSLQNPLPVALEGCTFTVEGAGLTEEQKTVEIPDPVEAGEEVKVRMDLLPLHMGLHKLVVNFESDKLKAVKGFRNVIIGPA

- ki [1]: 0.5 min⁻¹
- ki/KI [1]: 8.3
Molecule: CC(=O)N1CCC[C@H]1C(=O)N[C@H](CCC(=O)C=[N+]=[N-])C(=O)N[C@@H](CC(C)C)C(=O)N1CCC[C@H]1C(=O)N[C@@H](Cc1ccccc1)C(N)=O [Ac-Pro-DON-Leu-Pro-Phe-NH2] (Ac-P[X2]LPF-NH2)

- kinh [2]: 1.4 min⁻¹
Molecule: O=C(N[C@@H](Cc1ccccc1)C(=O)NCC1CC(Br)=NO1)OCc1ccccc1 (stereo partly drawn) [Compound 49, {(S)-1-[(3-Bromo-4,5-dihydro-isoxazol-5-ylmethyl)-carbamoyl]-2-phenyl-ethyl}-carbamic acid benzyl ester]
- inhibition of bovine epidermal transglutaminase [3]: is an inhibitor

Molecule: CC(=O)CSc1n(C)c(C)c(C)[n+]1C.[Cl-] [L682777]
- inhibition of human TG2 [4]: inhibits human TG2

- Ki [5]: 60 nM
- ki (inactivation rate constant) [5]: 0.5 min⁻¹
B1: Ac-Pro-DON-Leu-Pro-Phe-NH2 (DON=6-diazo-5-oxo-norleucine) (peptide)
peptide: Ac-P[DON]LPF-NH2
SMILES: CC(=O)N1CCC[C@H]1C(=O)N[C@@H](CCC(=O)C=[N+]=[N-])C(=O)N[C@@H](CC(C)C)C(=O)N1CCC[C@H]1C(=O)N[C@@H](Cc1ccccc1)C(N)=O
notes: Position 2 is the non-natural residue DON; also called truncated analog of Ac-Pro-Gln-Pro-DON-Leu-Pro-Phe-NH2

Reference: patent US8153593B2, “Transglutaminase inhibitors and methods of use thereof” (The Board of Trustees of the Leland Stanford Junior …, priority 2003, dated 2012)
